Some results are limits rather than exact numbers.

As for `CCNC(=O)ON=C1CCOc2ccc(OC)cc21`, the melting point (in general, the temperature of the solid-liquid transition) lay in the range of 97 to 98 °C.
The result for `N#Cc1nc(F)c(F)c(F)c1Cl` reads 41.5 to 43 °C; that for `N#Cc1ccc(C(=O)N2CCNC2=Nc2c(Cl)cccc2Cl)cc1`, 208 to 210 °C; that for `CN(C)C1(c2ccccc2)CCC(CCCNC(=O)NCCc2c[nH]c3ccccc23)CC1` (stereo not drawn), 57 °C.
Turning to `CC(=O)N1CCN(Cc2cnc(-c3cc4cccc(N(C)S(=O)(=O)c5cccs5)c4[nH]3)s2)CC1`, the melting point lay in the range of 177 to 178 °C.
The result for `COCOc1ccc(COc2cc3c(cc2-c2cc(C=CC(=O)O)ccc2OC)C(C)(C)CCC3(C)C)cc1` reads 106 to 108 °C; that for `O=c1cnc(C(F)(F)F)cn1-c1c(Cl)cc(C(F)(F)F)cc1[N+](=O)[O-]`, 145 to 147 °C; that for `Cn1cnc(C=CC(=O)NC2CCNC(=O)C2)c1` (stereo not drawn), 280 to 282 °C.
The compound `NC(=O)NCCS(=O)CC(O)CO` (stereo not drawn) gave a melting point of 102 °C.
Compound `CC(C)(C)c1cc2c(c(C(C)(C)C)c1O)CC1(CCSCC1)O2` showed a melting point of 209 °C.
Regarding `COc1ccccc1OC1(Cl)C=NC(N2CCOCC2)=NC1Cl` (stereo not drawn), the melting point came out at 180 °C.
`COc1ccc(Cn2nc(-c3ccc(SC)cc3)c(-c3ccc(F)cc3)cc2=S)cc1` showed a melting point of 113 °C.
As to `CN(C)CCCC1(O)c2ccccc2C=Cn2cc(C#N)cc21` (stereo not drawn), the melting point is 123 to 126 °C.
The compound `COCN1C(C)=C(C(=O)OCOC(=O)C(C)(C)C)C(c2cccc([N+](=O)[O-])c2)C(C(=O)OCOC(=O)C(C)(C)C)=C1C` had a melting point of 73 to 74 °C.
Consider `CC(C)n1nc(-c2nc(C(N)=S)c(N)nc2-c2ccccc2)ccc1=O`, for which the melting point is greater than 250 °C.
Take `OCCCc1cccc(OCc2coc(/C=C/c3ccccc3)n2)c1`: the melting point lay in the range of 57 to 58 °C.
Then `CCCCCCCCCCNC(=O)c1cc(C(=O)NCCCCCCCCCC)cc([N+](=O)[O-])c1`, with 115 to 116 °C; and `N#Cc1c(N)ccc(C(=O)CBr)c1Cl`, with 180 to 207 °C; and `Cc1noc(C)c1C(=O)Nc1ccc(-n2nc(C(F)(F)F)cc2C2CC2)cc1`, with 170 to 172 °C.
With `CCOc1nn2c(-c3ccccc3)nnc2c2ccccc12`, the melting point was 172 to 173 °C.
In the case of `O=c1ccc(S(=O)(=O)c2cc3cccc(Cl)c3[nH]2)n[nH]1`, the melting point lay within 248 to 250 °C.
As to `NS(=O)(=O)c1cccc(NC(=O)c2cnn3c(C(F)F)cc(-c4ccc(C(F)(F)F)c(OCC(F)(F)F)c4)nc23)c1`, the melting point was determined as 241 °C.
Take `Oc1ccc(Sc2nnc3cc(Cl)ccc3n2)cc1`: the melting point stood at 238 °C.
Then `Cc1cc(O)c(O)cc1S(=O)(=O)c1ccc(F)cc1`, with 175 to 177 °C.
Compound `Cc1ccc(C[C@H]2NC(=O)O[C@H]2c2ccc(F)cc2)cc1OC(F)(F)C(F)F` (racemic) yielded a melting point of 112 to 113 °C.
The result for `CCOC(=O)c1cn(Cc2ccccc2)nc1OCc1ccc(OCc2nc(-c3ccco3)oc2C)c(CC)c1` reads 125 to 126 °C.
On to `CC1(OCc2ccccc2F)COC(c2ccco2)OC1` (stereo not drawn), for which the melting point is 67.5 to 69 °C.
`COC(=O)C(C)(C)OCc1cc2nc(Cl)ccc2n1S(=O)(=O)c1ccc2c(c1)OCO2` came in with a melting point of 131 °C.
Then `Brc1ccc(C=Cc2ccc(Br)cc2)cc1`, with 213 °C; and `CS(=O)(=O)c1ccc(-c2c(-c3ccc(F)cc3)c(C(F)(F)F)nn2-c2ccccc2)cc1`, with 202 to 203 °C; and `COc1ccc(NC(C)=O)cc1OCCCN1CCC(c2nsc3cc(F)ccc23)CC1`, with 109 to 111 °C.
The compound `O=S(=O)(CC(F)(F)F)Oc1cccc(OS(=O)(=O)CC(F)(F)F)c1OS(=O)(=O)CC(F)(F)F` displayed a melting point of 73.5 to 75 °C.
`CNC(=O)O/N=C(/SC)C(F)(F)F` returned a melting point of 83 to 85 °C.
The result for `CC(C)CC(NC(=O)c1cc(O)c2c(c1)C(=O)c1cccc(O)c1C2=O)C(=O)O` (stereo not drawn) reads 204 to 206 °C; that for `Cc1nc(C)c(Cl)c(NCc2nccc(SCCCN3CCN(CC4CN(Cc5ccncc5)C(=O)O4)CC3)c2C)n1` (stereo not drawn), 123 to 126 °C.
With `O=C(O)c1cc(-c2ncnc(C(F)F)c2Cl)c(F)cc1Cl`, the melting point is 217 to 219 °C.
Then `COc1cc(N2CCCC2)ccc1CN1C(=O)C(C)(c2ccccc2Cl)c2cc(Cl)ccc21` (stereo not drawn), with 198 °C; and `COC(=O)CN1CCN(c2cccc(-c3nc4cc(OC)cc(OC)c4c(=O)[nH]3)n2)CC1`, with 176 to 177 °C; and `CC(C)(C)OC(=O)N[C@H]1COc2ccccc2N(CC(=O)OCc2ccccc2)C1=O`, with 122 to 124 °C.
In the case of `Cn1ncc2[nH]c3ccc(NC(=O)c4ccccc4)cc3c(=O)c21`, the melting point was greater than 300 °C.
The result for `O=S(=O)(NCc1ccccc1)c1ccc(Br)cc1` reads 116 to 117 °C; that for `COC(=O)CN(C1(C(=O)C2CCCCC2)C=C(Cl)C=CC1)S(=O)(=O)c1ccc(OC)cc1` (stereo not drawn), 115 to 116 °C; that for `CC1(C)OC(=O)c2c(O)cc(OCc3ccccc3)cc2O1`, 80 °C.
`Cc1onc(OCC(=O)NCCO[N+](=O)[O-])c1Br` came in with a melting point of 87 to 88 °C.
Then `Cc1nc2c(-c3cccc(N4CCOCC4)c3)cnn2c(N)c1-c1cccc(Cl)c1`, with 165 to 167 °C.
The result for `CCOC(=O)c1cc(OC)c2c(c1)C(=O)c1c(F)ccc(OC)c1C2=O` reads 201 to 203 °C.
In turn, `CS(=O)(=O)NCCCNC(=O)c1cccc(-c2cccc3oc(Cc4cccc(C(F)(F)F)c4)cc23)c1` yielded a melting point of 79 to 80 °C.
Then `O=C(O)CC1CCCC2CC(=O)NC12` (stereo not drawn), with 238 to 240 °C.
Then `O=C(O)c1cn(-c2nccs2)c2c(F)c(F)c(F)cc2c1=O`, with 198 to 200 °C.
`CN(C(=O)c1ccc(-n2cc3ccccc3n2)cc1)[C@@H]1CCN(C(=O)OC(C)(C)C)C1`: the melting point was 133 to 134 °C.
`O=C(O)CN(Cc1ccc(OCc2ccc(F)cc2)cc1)C(=O)c1cn2cc(-c3ccc(Cl)cc3)ccc2n1`: the melting point is 206 °C.
`COc1cc(C(=O)Cl)ccc1OCc1ccccc1` registered a melting point of 63 to 65 °C.
Compound `COC(=O)c1csc(-c2cc3ccccc3[nH]2)n1` gave a melting point of 69 to 71 °C.
`CCOC(=O)CC1CCc2c(oc3ccc(Cl)cc23)C1` (stereo not drawn) displayed a melting point of 54 to 55.5 °C.
In turn, `CCOC(=O)C1=C(C)NC(COC(C)=O)=C(C(=O)OCC)C1c1ccccc1Cl` (stereo not drawn) had a melting point of 98 °C.
For `COc1ccccc1NC(=O)Nc1nc(Nc2ccccc2-c2ccccc2)nc(N(CCC(=O)O)Cc2cccs2)n1`, the melting point lay within 115 to 120 °C.
For `CCc1cc2cc(O)c(Cl)c(Cl)c2s1`, the melting point fell in the range of 69 to 70 °C.
Then `COC(=O)[C@H](Cc1cc(F)cc(F)c1)NC(=O)OC(C)(C)C`, with 81 °C; and `O=C(O)CCOc1cccc2c1CCc1sc(SC(c3ccccc3)c3ccccc3)nc1-2`, with 156 to 158 °C; and `N#Cc1c(N)oc2c(-c3ccccc3)cccc2c1=O`, with 217 to 219 °C.
Consider `Clc1cccnc1-c1ccc2[nH]nc(Nc3cc[nH]n3)c2c1`, for which the melting point lay in the range of 218 to 220 °C.
As to `Cc1[nH]c(=O)c(C#N)cc1-c1ccccc1OCC(=O)O`, the melting point was in the range of 297 to 299 °C.
`C=CCN1CN(C(=O)c2c(F)cccc2F)C(=O)N(c2ccc(Cl)cc2)C1` showed a melting point of 87 to 88 °C.
Turning to `NNCC1(O)c2ccccc2C=Cc2ccccc21`, the melting point lay in the range of 128 to 131 °C.
For the compound `CCCCC(=O)Nc1ccc(N)cc1Cl`, the melting point was 96.5 to 99 °C.
For `CCCCCCCCCCCCCCCCCCNC(=O)OCC1(CO)CCCO1` (stereo not drawn), the melting point was in the range of 57 to 58 °C.
Then `Cc1cc(=S)cc(C)n1CCN`, with 162 to 164 °C; and `COCc1cccc2c1ccn2S(=O)(=O)c1ccc(C)cc1`, with 85.5 to 89 °C.
With `CC(C)Cc1c2c(nn1C)c(O)nc1ccccc12`, the melting point is greater than 280 °C.
Turning to `CCCCCCCCc1cccc(N2CC(=O)NC(=O)N2)c1`, the melting point was 169 to 171 °C.
The result for `CC(C)(C)c1cc(C=CC(=O)NN)cc(C(C)(C)C)c1O` reads 166 °C; that for `O=c1c2cc(Br)ccc2ncn1Cc1cccnc1`, 162 to 164 °C; that for `Cn1ccc(NC(=O)Nc2cccc3c2C2CCCCN2C3=O)n1` (stereo not drawn), 233 °C.
In the case of `COc1cc2c(cc1OC)C(c1cccc(Cl)c1)=NN=C(C)C2`, the melting point lay within 166 to 168 °C.
In the case of `O=c1c2c(N3CCNCC3)cc(Cl)cc2n(Cc2ccccc2)c(=O)n1Cc1ccccc1Br`, the melting point is 94 to 97 °C.
Turning to `COC(=O)C1CCc2cc(C(=O)c3ccccc3Cl)c(O)cc21` (stereo not drawn), the melting point fell in the range of 188 to 190 °C.
`CCCCCCCCCCCCCCCCC(C(=O)NC1=NN(c2ccccc2)C(=O)C1C)S(=O)(=O)O` (stereo not drawn) registered a melting point of 240 °C.
Regarding `CON=Cc1cc(-n2c(=O)cc(C(F)(F)F)n(C)c2=O)c(F)cc1Cl`, the melting point lay in the range of 141 to 142 °C.
The compound `CCC(=O)c1ccc(=O)[nH]c1CC` yielded a melting point of 138 to 140 °C.
`CC(C)(C)OC(=O)C=Cc1ccc(-c2ccc3ncnc(Nc4ccc(OCc5cccc(F)c5)c(Cl)c4)c3c2)cc1`: the melting point worked out at 212 °C.
With `CCN1c2ncccc2C(=O)N(C)c2ccc(-c3c[nH]c(C(=O)O)c3)nc21`, the melting point lay in the range of 256 to 257 °C.
`Nc1nc(C[C@H](NC(=O)[C@H](Cc2ccccc2)NS(=O)(=O)N2CCOCC2)C(=O)O)cs1` yielded a melting point of 149 to 151 °C.
Compound `C[C@H](Nc1ncnc2[nH]cnc12)c1oc2ccc(F)cc2c(=O)c1-c1cccc(F)c1` showed a melting point of 194 to 197 °C.
On to `OCCc1c2ccccc2cc2ccccc12`, for which the melting point was 85 to 87 °C.
`CCc1nc(N)nc(N)c1N1CCN(Cc2ccccc2)CC1` showed a melting point of 174 to 175 °C.
The compound `Cc1onc(O)c1-c1ccccc1[N+](=O)[O-]` came in with a melting point of 197 °C.
Then `CNc1c(NCCSCc2ccc(CN(C)C)s2)c(=O)c1=O`, with 185 to 187 °C; and `CCC(C)n1c(Nc2cc(C(F)(F)F)ccc2C(F)(F)F)nc(C(F)(F)F)c(Cl)c1=O` (stereo not drawn), with 133 to 135 °C.

These data come from a melting point compilation (Tetko et al.; mined from patent text by program, amines drawn as free bases though some values may be those of a salt).
